The kinase profiling compilation of Christmann-Franck et al. (2016)
Values belong to the compound of their own block, whether it stands above or below them.

Assays:
Test in all cases: radiometric filter-binding kinase assay, Kinase HotSpot
Conditions in all cases: compound 0.5 µM; ATP 10 µM
PDPK1 (human) = PDPK1 (human) (UniProt O15530)
PTK2B (human) = PTK2B (human) (UniProt Q14289)
WNK3 (human) = WNK3 (human) (UniProt Q9BYP7)
PRKACA (human) = PRKACA (human) (UniProt P17612)
MAP2K2 (human) = MAP2K2 (human) (UniProt P36507)
PTK2 (human) = PTK2 (human) (UniProt Q05397)
EPHB1 (human) = EPHB1 (human) (UniProt P54762)
MAPK3 (human) = MAPK3 (human) (UniProt P27361)
CDK7 CCNH MNAT1 (human) = CDK7 CCNH MNAT1 (human) (UniProt P50613+P51948+P51946)
CAMK2G (human) = CAMK2G (human) (UniProt Q13555)
AXL (human) = AXL (human) (UniProt P30530)
EPHB4 (human) = EPHB4 (human) (UniProt P54760)
DYRK3 (human) = DYRK3 (human) (UniProt O43781)
PKN2 (human) = PKN2 (human) (UniProt Q16513)
EPHA4 (human) = EPHA4 (human) (UniProt P54764)
PRKCE (human) = PRKCE (human) (UniProt Q02156)
ERBB4 (human) = ERBB4 (human) (UniProt Q15303)
HIPK2 (human) = HIPK2 (human) (UniProt Q9H2X6)
SGK3 (human) = SGK3 (human) (UniProt Q96BR1)
NUAK1 (human) = NUAK1 (human) (UniProt O60285)
NUAK1 (human), sequence (O60285 whole entry, looked up): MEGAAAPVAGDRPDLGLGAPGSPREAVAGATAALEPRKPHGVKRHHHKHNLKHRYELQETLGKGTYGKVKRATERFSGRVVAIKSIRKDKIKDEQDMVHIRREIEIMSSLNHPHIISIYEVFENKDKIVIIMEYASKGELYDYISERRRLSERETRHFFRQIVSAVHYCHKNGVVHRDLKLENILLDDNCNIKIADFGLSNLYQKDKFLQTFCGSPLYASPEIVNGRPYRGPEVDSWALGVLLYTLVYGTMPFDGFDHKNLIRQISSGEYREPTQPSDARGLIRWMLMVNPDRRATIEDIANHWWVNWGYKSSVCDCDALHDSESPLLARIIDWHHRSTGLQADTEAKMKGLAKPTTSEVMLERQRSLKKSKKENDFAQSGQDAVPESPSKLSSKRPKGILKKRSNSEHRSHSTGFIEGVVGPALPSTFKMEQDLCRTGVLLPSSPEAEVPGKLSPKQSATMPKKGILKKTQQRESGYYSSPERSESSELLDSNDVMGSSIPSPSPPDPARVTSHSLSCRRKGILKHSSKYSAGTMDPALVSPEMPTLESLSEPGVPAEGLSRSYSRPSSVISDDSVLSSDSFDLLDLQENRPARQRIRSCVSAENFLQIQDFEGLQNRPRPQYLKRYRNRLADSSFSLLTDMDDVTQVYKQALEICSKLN

MAPK12 (human) = MAPK12 (human) (UniProt P53778)
PAK2 (human) = PAK2 (human) (UniProt Q13177)
MAPKAPK5 (human) = MAPKAPK5 (human) (UniProt Q8IW41)
STK10 (human) = STK10 (human) (UniProt O94804)
SRPK1 (human) = SRPK1 (human) (UniProt Q96SB4)
PDGFRA (human) = PDGFRA (human) (UniProt P16234)
PDGFRA (human), sequence (P16234 whole entry, looked up): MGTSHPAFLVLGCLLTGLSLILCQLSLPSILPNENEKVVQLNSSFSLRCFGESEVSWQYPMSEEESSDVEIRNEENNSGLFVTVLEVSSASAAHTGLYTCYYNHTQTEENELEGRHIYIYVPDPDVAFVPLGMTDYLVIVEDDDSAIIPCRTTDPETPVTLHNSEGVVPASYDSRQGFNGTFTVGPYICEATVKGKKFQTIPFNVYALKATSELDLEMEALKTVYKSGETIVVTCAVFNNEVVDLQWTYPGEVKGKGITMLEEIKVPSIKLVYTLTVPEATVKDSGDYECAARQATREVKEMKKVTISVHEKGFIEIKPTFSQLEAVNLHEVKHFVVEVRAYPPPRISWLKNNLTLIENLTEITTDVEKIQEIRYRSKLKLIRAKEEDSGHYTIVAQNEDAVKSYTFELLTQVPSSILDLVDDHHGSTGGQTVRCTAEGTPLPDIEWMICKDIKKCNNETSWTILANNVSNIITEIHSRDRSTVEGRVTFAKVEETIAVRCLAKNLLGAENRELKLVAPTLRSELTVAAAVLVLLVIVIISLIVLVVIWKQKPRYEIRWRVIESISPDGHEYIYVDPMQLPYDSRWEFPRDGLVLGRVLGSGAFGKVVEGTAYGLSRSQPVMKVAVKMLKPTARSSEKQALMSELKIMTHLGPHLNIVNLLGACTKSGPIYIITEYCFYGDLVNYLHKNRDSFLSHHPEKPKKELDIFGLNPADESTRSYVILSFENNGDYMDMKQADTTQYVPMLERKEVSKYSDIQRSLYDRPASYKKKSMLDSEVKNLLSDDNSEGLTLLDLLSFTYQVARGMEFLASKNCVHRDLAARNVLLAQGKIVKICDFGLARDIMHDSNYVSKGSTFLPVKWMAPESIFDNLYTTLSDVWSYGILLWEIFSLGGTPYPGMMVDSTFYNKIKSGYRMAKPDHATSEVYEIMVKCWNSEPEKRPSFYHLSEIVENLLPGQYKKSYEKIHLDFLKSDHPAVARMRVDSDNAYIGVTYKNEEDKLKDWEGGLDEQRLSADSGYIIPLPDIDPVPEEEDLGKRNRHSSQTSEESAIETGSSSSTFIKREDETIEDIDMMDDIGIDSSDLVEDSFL

MERTK (human) = MERTK (human) (UniProt Q12866)
NEK4 (human) = NEK4 (human) (UniProt P51957)
NUAK2 (human) = NUAK2 (human) (UniProt Q9H093)
JAK2 JH1 JH2 (human) = JAK2 JH1 JH2 (human) (UniProt O60674)
CSNK1G1 (human) = CSNK1G1 (human) (UniProt Q9HCP0)
ITK (human) = ITK (human) (UniProt Q08881)
ITK (human), sequence (Q08881 whole entry, looked up): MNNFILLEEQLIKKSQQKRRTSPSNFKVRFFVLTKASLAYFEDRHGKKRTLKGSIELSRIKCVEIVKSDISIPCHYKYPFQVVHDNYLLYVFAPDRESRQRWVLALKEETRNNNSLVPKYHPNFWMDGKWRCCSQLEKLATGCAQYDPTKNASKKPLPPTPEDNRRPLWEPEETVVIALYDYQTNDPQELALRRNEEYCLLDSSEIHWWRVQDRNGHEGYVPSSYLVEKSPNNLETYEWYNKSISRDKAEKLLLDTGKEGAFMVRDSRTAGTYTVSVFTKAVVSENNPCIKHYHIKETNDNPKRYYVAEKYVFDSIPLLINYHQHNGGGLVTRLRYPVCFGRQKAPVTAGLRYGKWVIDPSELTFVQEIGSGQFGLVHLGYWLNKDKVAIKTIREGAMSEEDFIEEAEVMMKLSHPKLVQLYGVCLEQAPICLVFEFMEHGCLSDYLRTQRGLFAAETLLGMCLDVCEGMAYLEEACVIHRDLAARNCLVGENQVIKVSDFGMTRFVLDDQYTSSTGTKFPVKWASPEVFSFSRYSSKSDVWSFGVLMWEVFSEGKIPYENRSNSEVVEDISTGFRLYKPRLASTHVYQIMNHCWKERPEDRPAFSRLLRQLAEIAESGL

AURKB (human) = AURKB (human) (UniProt Q96GD4)
AKT2 (human) = AKT2 (human) (UniProt P31751)
AKT2 (human), sequence (P31751 whole entry, looked up): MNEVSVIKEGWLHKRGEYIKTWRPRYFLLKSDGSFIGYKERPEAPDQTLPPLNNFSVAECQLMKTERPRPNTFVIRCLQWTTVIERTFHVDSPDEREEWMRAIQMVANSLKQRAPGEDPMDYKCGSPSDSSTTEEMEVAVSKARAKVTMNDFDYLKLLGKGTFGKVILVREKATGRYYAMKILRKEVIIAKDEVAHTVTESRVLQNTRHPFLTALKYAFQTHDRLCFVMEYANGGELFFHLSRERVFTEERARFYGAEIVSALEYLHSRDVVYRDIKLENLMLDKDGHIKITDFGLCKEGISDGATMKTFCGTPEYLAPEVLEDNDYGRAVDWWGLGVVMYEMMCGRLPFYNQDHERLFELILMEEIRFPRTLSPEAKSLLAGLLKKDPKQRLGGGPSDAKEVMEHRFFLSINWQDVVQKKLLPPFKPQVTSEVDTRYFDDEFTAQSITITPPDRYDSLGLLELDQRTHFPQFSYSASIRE

INSRR (human) = INSRR (human) (UniProt P14616)
PKN1 (human) = PKN1 (human) (UniProt Q16512)
PHKG2 (human) = PHKG2 (human) (UniProt P15735)
MAPKAPK3 (human) = MAPKAPK3 (human) (UniProt Q16644)
HCK (human) = HCK (human) (UniProt P08631)
MLTK (human) = MLTK (human) (UniProt Q9NYL2)
CSF1R (human) = CSF1R (human) (UniProt P07333)
CSF1R (human), sequence (P07333 whole entry, looked up): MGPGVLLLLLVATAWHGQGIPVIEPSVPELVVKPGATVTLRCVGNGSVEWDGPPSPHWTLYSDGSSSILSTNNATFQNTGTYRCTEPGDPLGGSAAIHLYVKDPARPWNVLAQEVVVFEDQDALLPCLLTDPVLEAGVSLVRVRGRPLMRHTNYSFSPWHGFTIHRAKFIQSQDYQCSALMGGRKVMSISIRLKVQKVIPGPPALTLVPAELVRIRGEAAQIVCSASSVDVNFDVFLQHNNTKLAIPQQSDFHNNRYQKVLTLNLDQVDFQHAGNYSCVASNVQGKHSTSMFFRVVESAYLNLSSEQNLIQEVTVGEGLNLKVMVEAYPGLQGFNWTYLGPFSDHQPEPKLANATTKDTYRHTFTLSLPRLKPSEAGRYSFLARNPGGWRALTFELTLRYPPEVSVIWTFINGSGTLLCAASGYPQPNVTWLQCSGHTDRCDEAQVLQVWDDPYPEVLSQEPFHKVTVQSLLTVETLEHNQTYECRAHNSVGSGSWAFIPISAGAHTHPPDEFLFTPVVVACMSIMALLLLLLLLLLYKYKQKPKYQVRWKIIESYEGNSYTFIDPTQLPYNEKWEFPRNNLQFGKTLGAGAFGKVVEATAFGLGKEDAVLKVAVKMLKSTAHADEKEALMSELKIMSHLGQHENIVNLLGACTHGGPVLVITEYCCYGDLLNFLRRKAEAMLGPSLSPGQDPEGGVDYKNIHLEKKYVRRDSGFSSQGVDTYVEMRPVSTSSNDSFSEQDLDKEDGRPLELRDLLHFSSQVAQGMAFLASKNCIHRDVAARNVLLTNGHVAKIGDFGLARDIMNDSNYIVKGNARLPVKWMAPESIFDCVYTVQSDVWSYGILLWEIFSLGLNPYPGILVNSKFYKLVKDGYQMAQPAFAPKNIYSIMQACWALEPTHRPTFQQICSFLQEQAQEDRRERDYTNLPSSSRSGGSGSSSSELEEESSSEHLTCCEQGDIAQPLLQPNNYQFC

PASK (human) = PASK (human) (UniProt Q96RG2)

PTK2B (human), sequence (Q14289 whole entry, looked up): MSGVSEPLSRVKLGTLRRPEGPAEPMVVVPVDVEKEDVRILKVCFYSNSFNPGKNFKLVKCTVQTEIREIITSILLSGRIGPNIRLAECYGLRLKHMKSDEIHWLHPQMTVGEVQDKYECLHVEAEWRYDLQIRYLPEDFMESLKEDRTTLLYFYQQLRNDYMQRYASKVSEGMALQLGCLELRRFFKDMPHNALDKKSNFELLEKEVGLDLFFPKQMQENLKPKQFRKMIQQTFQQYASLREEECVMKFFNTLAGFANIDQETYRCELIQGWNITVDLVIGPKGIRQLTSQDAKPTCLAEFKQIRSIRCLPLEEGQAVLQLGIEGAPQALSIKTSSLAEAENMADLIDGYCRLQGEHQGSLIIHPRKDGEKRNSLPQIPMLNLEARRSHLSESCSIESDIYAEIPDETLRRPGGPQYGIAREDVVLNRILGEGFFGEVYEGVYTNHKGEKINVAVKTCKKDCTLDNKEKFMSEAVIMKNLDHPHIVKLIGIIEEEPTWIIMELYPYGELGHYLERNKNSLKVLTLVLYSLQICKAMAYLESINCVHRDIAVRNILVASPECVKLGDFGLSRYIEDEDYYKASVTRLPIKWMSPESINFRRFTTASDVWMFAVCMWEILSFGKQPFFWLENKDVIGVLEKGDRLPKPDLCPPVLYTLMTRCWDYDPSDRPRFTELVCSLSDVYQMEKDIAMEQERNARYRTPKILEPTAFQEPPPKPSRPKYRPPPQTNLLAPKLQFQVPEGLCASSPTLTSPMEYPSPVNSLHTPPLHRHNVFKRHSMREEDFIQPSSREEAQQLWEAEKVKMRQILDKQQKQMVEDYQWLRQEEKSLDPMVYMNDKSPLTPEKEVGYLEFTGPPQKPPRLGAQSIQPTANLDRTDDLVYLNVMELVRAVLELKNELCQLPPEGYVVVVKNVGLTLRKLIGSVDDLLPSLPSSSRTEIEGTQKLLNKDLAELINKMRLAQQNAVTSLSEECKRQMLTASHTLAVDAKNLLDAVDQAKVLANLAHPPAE

- residual activity (PDPK1 (human)): 102%
- residual activity (PTK2B (human)): 96.7%
- residual activity (WNK3 (human)): 85.2%
- residual activity (PRKACA (human)): 100%
- residual activity (MAP2K2 (human)): 103%
- residual activity (PTK2 (human)): 93.9%
- residual activity (EPHB1 (human)): 94.5%
- residual activity (MAPK3 (human)): 108%
- residual activity (CDK7 CCNH MNAT1 (human)): 96.8%
- residual activity (CAMK2G (human)): 95%
- residual activity (AXL (human)): 113%
- residual activity (EPHB4 (human)): 98.3%
- residual activity (DYRK3 (human)): 94.9%
- residual activity (PKN2 (human)): 104%
- residual activity (EPHA4 (human)): 87.5%
- residual activity (PRKCE (human)): 96%
- residual activity (ERBB4 (human)): 11.9%
- residual activity (HIPK2 (human)): 106%
- residual activity (SGK3 (human)): 112%
- residual activity (NUAK1 (human)): 87%
- residual activity (MAPK12 (human)): 97.6%
- residual activity (PAK2 (human)): 106%
- residual activity (MAPKAPK5 (human)): 98.7%
- residual activity (STK10 (human)): 73.1%
- residual activity (SRPK1 (human)): 105%
- residual activity (PDGFRA (human)): 65%
- residual activity (MERTK (human)): 87.4%
- residual activity (NEK4 (human)): 92.1%
- residual activity (NUAK2 (human)): 96.8%
- residual activity (JAK2 JH1 JH2 (human)): 104%
- residual activity (CSNK1G1 (human)): 90.8%
- residual activity (ITK (human)): 87.1%
- residual activity (AURKB (human)): 88.6%
- residual activity (AKT2 (human)): 99.7%
- residual activity (INSRR (human)): 81.9%
- residual activity (PKN1 (human)): 104%
- residual activity (PHKG2 (human)): 96.9%
- residual activity (MAPKAPK3 (human)): 109%
- residual activity (HCK (human)): 2.18%
- residual activity (MLTK (human)): 70.3%
- residual activity (CSF1R (human)): 61.3%
- residual activity (PASK (human)): 98.5%
Structure (SMILES): Nc1ncnc2c1c(-c1ccc(Oc3ccccc3)cc1)cn2C1CCCC1

Structure (SMILES): O=C(Nc1cccc(Nc2nccc(Nc3cccc(C(F)(F)F)c3)n2)c1)C1CC1
- residual activity (PDPK1 (human)): 104%
- residual activity (PTK2B (human)): 90.9%
- residual activity (WNK3 (human)): 105%
- residual activity (PRKACA (human)): 91.7%
- residual activity (MAP2K2 (human)): 89.2%
- residual activity (PTK2 (human)): 89.1%
- residual activity (EPHB1 (human)): 85.6%
- residual activity (MAPK3 (human)): 98.2%
- residual activity (CDK7 CCNH MNAT1 (human)): 92.6%
- residual activity (CAMK2G (human)): 108%
- residual activity (AXL (human)): 104%
- residual activity (EPHB4 (human)): 91.3%
- residual activity (DYRK3 (human)): 101%
- residual activity (PKN2 (human)): 89.5%
- residual activity (EPHA4 (human)): 81%
- residual activity (PRKCE (human)): 106%
- residual activity (ERBB4 (human)): 103%
- residual activity (HIPK2 (human)): 103%
- residual activity (SGK3 (human)): 111%
- residual activity (NUAK1 (human)): 67.2%
- residual activity (MAPK12 (human)): 99.7%
- residual activity (PAK2 (human)): 105%
- residual activity (MAPKAPK5 (human)): 91.9%
- residual activity (STK10 (human)): 90.1%
- residual activity (SRPK1 (human)): 104%
- residual activity (PDGFRA (human)): 89.3%
- residual activity (MERTK (human)): 90.1%
- residual activity (NEK4 (human)): 83.4%
- residual activity (NUAK2 (human)): 94.3%
- residual activity (JAK2 JH1 JH2 (human)): 47.7%
- residual activity (CSNK1G1 (human)): 105%
- residual activity (ITK (human)): 101%
- residual activity (AURKB (human)): 72.8%
- residual activity (AKT2 (human)): 107%
- residual activity (INSRR (human)): 89.9%
- residual activity (PKN1 (human)): 93.3%
- residual activity (PHKG2 (human)): 107%
- residual activity (MAPKAPK3 (human)): 93%
- residual activity (HCK (human)): 102%
- residual activity (MLTK (human)): 110%
- residual activity (CSF1R (human)): 63.1%
- residual activity (PASK (human)): 106%

Structure (SMILES): CCN(CC)CCNC(=O)c1c(C)[nH]c(/C=C2\C(=O)Nc3ccc(Cl)cc32)c1C
- residual activity (PDPK1 (human)): 101%
- residual activity (PTK2B (human)): 30.5%
- residual activity (WNK3 (human)): 86.3%
- residual activity (PRKACA (human)): 90%
- residual activity (MAP2K2 (human)): 41.4%
- residual activity (PTK2 (human)): 25.8%
- residual activity (EPHB1 (human)): 60.8%
- residual activity (MAPK3 (human)): 98.8%
- residual activity (CDK7 CCNH MNAT1 (human)): 72.8%
- residual activity (CAMK2G (human)): 8.13%
- residual activity (AXL (human)): 25.2%
- residual activity (EPHB4 (human)): 76.9%
- residual activity (DYRK3 (human)): 81.8%
- residual activity (PKN2 (human)): 84.4%
- residual activity (EPHA4 (human)): 88%
- residual activity (PRKCE (human)): 102%
- residual activity (ERBB4 (human)): 86.1%
- residual activity (HIPK2 (human)): 20%
- residual activity (SGK3 (human)): 103%
- residual activity (NUAK1 (human)): 2.06%
- residual activity (MAPK12 (human)): 96.6%
- residual activity (PAK2 (human)): 92.7%
- residual activity (MAPKAPK5 (human)): 91.6%
- residual activity (STK10 (human)): 7.11%
- residual activity (SRPK1 (human)): 95.9%
- residual activity (PDGFRA (human)): 25.9%
- residual activity (MERTK (human)): 11.5%
- residual activity (NEK4 (human)): 97%
- residual activity (NUAK2 (human)): 70.7%
- residual activity (JAK2 JH1 JH2 (human)): 54%
- residual activity (CSNK1G1 (human)): 69.2%
- residual activity (ITK (human)): 30%
- residual activity (AURKB (human)): 31.9%
- residual activity (AKT2 (human)): 86.9%
- residual activity (INSRR (human)): 4.33%
- residual activity (PKN1 (human)): 36.5%
- residual activity (PHKG2 (human)): 16.6%
- residual activity (MAPKAPK3 (human)): 101%
- residual activity (HCK (human)): 34.3%
- residual activity (MLTK (human)): 95.8%
- residual activity (CSF1R (human)): 7.41%
- residual activity (PASK (human)): 89.6%

Structure (SMILES): N#C/C(=C(/N)Sc1ccc(N)cc1)c1ccccc1C(F)(F)F
- residual activity (PDPK1 (human)): 103%
- residual activity (PTK2B (human)): 105%
- residual activity (WNK3 (human)): 94.9%
- residual activity (PRKACA (human)): 109%
- residual activity (MAP2K2 (human)): 94.5%
- residual activity (PTK2 (human)): 101%
- residual activity (EPHB1 (human)): 98.8%
- residual activity (MAPK3 (human)): 116%
- residual activity (CDK7 CCNH MNAT1 (human)): 100%
- residual activity (CAMK2G (human)): 106%
- residual activity (AXL (human)): 119%
- residual activity (EPHB4 (human)): 102%
- residual activity (DYRK3 (human)): 105%
- residual activity (PKN2 (human)): 99.9%
- residual activity (EPHA4 (human)): 99.3%
- residual activity (PRKCE (human)): 104%
- residual activity (ERBB4 (human)): 89.9%
- residual activity (HIPK2 (human)): 115%
- residual activity (SGK3 (human)): 105%
- residual activity (NUAK1 (human)): 95.9%
- residual activity (MAPK12 (human)): 97.4%
- residual activity (PAK2 (human)): 98%
- residual activity (MAPKAPK5 (human)): 89.9%
- residual activity (STK10 (human)): 88.7%
- residual activity (SRPK1 (human)): 96.5%
- residual activity (PDGFRA (human)): 99.5%
- residual activity (MERTK (human)): 80.7%
- residual activity (NEK4 (human)): 95.9%
- residual activity (NUAK2 (human)): 75%
- residual activity (JAK2 JH1 JH2 (human)): 98.7%
- residual activity (CSNK1G1 (human)): 89%
- residual activity (ITK (human)): 97.4%
- residual activity (AURKB (human)): 99.8%
- residual activity (AKT2 (human)): 102%
- residual activity (INSRR (human)): 88.1%
- residual activity (PKN1 (human)): 104%
- residual activity (PHKG2 (human)): 96.1%
- residual activity (MAPKAPK3 (human)): 102%
- residual activity (HCK (human)): 93.9%
- residual activity (MLTK (human)): 105%
- residual activity (CSF1R (human)): 101%
- residual activity (PASK (human)): 101%
